# Laboratory results taken from PubChem BioAssay AID330 (DTP/NCI, 2004).
# Where “and” joins values, the source holds several entries; their conditions need not be identical. Equal values may be shown once. Toxic doses and inconclusive results are not listed.
# Test system: P388 leukemia ip, CD2F1 mice, survival T/C
# Assay: NCI In Vivo Anticancer Drug Screen. Data for tumor model P388 Leukemia (intraperitoneal) in CD2F1 (CDF1) mice
# Conditions: endpoint: median survival time, higher = longer survival
# Method in brief: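 Mice carrying the transplanted tumor received test compound or vehicle. Survival was recorded in each group, and the value is the treated-group measurement divided by that of the vehicle-treated control group.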
# [1] = dose: 50.0 mg/kg/injection, schedule: Q01DX005 (ip), vehicle: Klucel (hydroxypropylcellulose) (HPC)
# [2] = dose: 100.0 mg/kg/injection, schedule: Q01DX005 (ip), vehicle: Klucel (hydroxypropylcellulose) (HPC)
# [3] = dose: 200.0 mg/kg/injection, schedule: Q01DX005 (ip), vehicle: Klucel (hydroxypropylcellulose) (HPC)
# [4] = dose: 12.5 mg/kg/injection, schedule: Q01DX005 (ip), vehicle: saline with Tween-80
# [5] = dose: 25.0 mg/kg/injection, schedule: Q01DX005 (ip), vehicle: saline with Tween-80
# [6] = dose: 50.0 mg/kg/injection, schedule: Q01DX005 (ip), vehicle: saline with Tween-80
# [7] = dose: 12.5 mg/kg/injection, schedule: Q01DX005 (ip), vehicle: Klucel (hydroxypropylcellulose) (HPC)
# [8] = dose: 25.0 mg/kg/injection, schedule: Q01DX005 (ip), vehicle: Klucel (hydroxypropylcellulose) (HPC)
# [9] = dose: 60.0 mg/kg/injection, schedule: Q01DX005 (ip), vehicle: Klucel (hydroxypropylcellulose) (HPC)
# [10] = dose: 50.0 mg/kg/injection, schedule: Q01DX009 (ip), vehicle: saline with Tween-80
# [11] = dose: 100.0 mg/kg/injection, schedule: Q01DX009 (ip), vehicle: saline with Tween-80
# [12] = dose: 200.0 mg/kg/injection, schedule: Q01DX009 (ip), vehicle: saline with Tween-80
smiles,measurement,setting,value
O=C(Nc1ccc(O)cc1)C(F)(F)F,T/C,"dose: 50.0 mg/kg/injection, schedule: Q01DX009 (ip), vehicle: Klucel (hydroxypropylcellulose) (HPC)",93 % of control
same,T/C,"dose: 100.0 mg/kg/injection, schedule: Q01DX009 (ip), vehicle: Klucel (hydroxypropylcellulose) (HPC)",95 % of control
same,T/C,"dose: 200.0 mg/kg/injection, schedule: Q01DX009 (ip), vehicle: Klucel (hydroxypropylcellulose) (HPC)",90 % of control
CCCCN=Cc1c(O)c(O)c(C(C)C)c2cc(C)c(-c3c(C)cc4c(C(C)C)c(O)c(O)c(C=NCCCC)c4c3O)c(O)c12,T/C,[1],99 % of control
same,T/C,[2],107 % of control
same,T/C,[3],114 % of control
COC1=CC2(C=CC1=O)CCC(=O)O2 (stereo unspecified),T/C,[4],119 % of control
same,T/C,[5],111 % of control
same,T/C,[6],115 % of control and 113 % of control
same,T/C,"dose: 100.0 mg/kg/injection, schedule: Q01DX005 (ip), vehicle: saline with Tween-80",108 % of control
COc1ccc(CC2c3cc(OC)c(OC)cc3C=CN2C)cc1OC (stereo unspecified),T/C,[7],99 % of control
same,T/C,[8],103 % of control
same,T/C,[1],96 % of control
CC(C)(CBr)COP1(=O)NCC(C)(C)CO1 (stereo unspecified),T/C,[1],106 % of control
same,T/C,[2],105 % of control
same,T/C,[3],106 % of control
COC(=O)C1=CN(C)/C(=C/C=C(\C#N)C(=O)OC)C(C#N)=C1N,T/C,"dose: 100.0 mg/kg/injection, schedule: Q01DX001 (ip), vehicle: Klucel (hydroxypropylcellulose) (HPC)",96 % of control
same,T/C,"dose: 200.0 mg/kg/injection, schedule: Q01DX001 (ip), vehicle: Klucel (hydroxypropylcellulose) (HPC)",97 % of control
same,T/C,"dose: 400.0 mg/kg/injection, schedule: Q01DX001 (ip), vehicle: Klucel (hydroxypropylcellulose) (HPC)",96 % of control
[N-]=[N+]=CC(=O)CCC(NC(=O)OCc1ccccc1)C(=O)OCc1ccccc1 (stereo unspecified),T/C,"dose: 0.78 mg/kg/injection, schedule: Q01DX005 (ip), vehicle: Klucel (hydroxypropylcellulose) (HPC)",102 % of control
same,T/C,"dose: 1.56 mg/kg/injection, schedule: Q01DX005 (ip), vehicle: Klucel (hydroxypropylcellulose) (HPC)",110 % of control
same,T/C,"dose: 3.13 mg/kg/injection, schedule: Q01DX005 (ip), vehicle: Klucel (hydroxypropylcellulose) (HPC)",101 % of control
same,T/C,"dose: 6.25 mg/kg/injection, schedule: Q01DX005 (ip), vehicle: Klucel (hydroxypropylcellulose) (HPC)",104 % of control
same,T/C,[7],99 % of control and 101 % of control and 113 % of control
same,T/C,[8],110 % of control and 120 % of control
same,T/C,"dose: 36.0 mg/kg/injection, schedule: Q01DX005 (ip), vehicle: Klucel (hydroxypropylcellulose) (HPC)",107 % of control
same,T/C,[9],120 % of control
same,T/C,"dose: 278.0 mg/kg/injection, schedule: Q01DX005 (ip), vehicle: Klucel (hydroxypropylcellulose) (HPC)",152 % of control
CC1=C(C)C(=O)c2cc3c(-c4ccccc4)oc(-c4ccccc4)c3cc2C1=O,T/C,[4],93 % of control
same,T/C,[5],95 % of control
same,T/C,[6],86 % of control and 96 % of control
CCCOC1(C)Oc2cc3c(cc2C(c2cc(OC)c(OC)c(OC)c2)C1C)OCO3 (stereo unspecified),T/C,[9],97 % of control
same,T/C,"dose: 120.0 mg/kg/injection, schedule: Q01DX005 (ip), vehicle: Klucel (hydroxypropylcellulose) (HPC)",96 % of control
same,T/C,"dose: 240.0 mg/kg/injection, schedule: Q01DX005 (ip), vehicle: Klucel (hydroxypropylcellulose) (HPC)",99 % of control
CCOC(=O)c1ccc(NC(CCC(C#N)(C#N)CCC(=NC(C)(C)C)Nc2ccc(C(=O)OCC)cc2)=NC(C)(C)C)cc1,T/C,[10],95 % of control
same,T/C,[11],95 % of control
same,T/C,[12],96 % of control
CC[Se](CC)CC.CC[Se](CC)CC.C[CH2][Ge]([CH2]C)[O][Ge]([CH2]C)[CH2]C,T/C,"dose: 3.12 mg/kg/injection, schedule: Q01DX009 (ip), vehicle: saline",99 % of control and 95 % of control
same,T/C,"dose: 6.25 mg/kg/injection, schedule: Q01DX009 (ip), vehicle: saline",96 % of control (2×) and 97 % of control
same,T/C,"dose: 12.5 mg/kg/injection, schedule: Q01DX009 (ip), vehicle: saline",101 % of control and 107 % of control and 96 % of control
same,T/C,"dose: 25.0 mg/kg/injection, schedule: Q01DX009 (ip), vehicle: saline",117 % of control and 118 % of control
CC(C)(C)C1CCC(=O)C2(CCCC2)C1 (stereo unspecified),T/C,[10],100 % of control
same,T/C,[11],114 % of control
same,T/C,[12],122 % of control
CCCCCCCNC1CCCc2cc(OC)ccc21 (stereo unspecified),T/C,"dose: 50.0 mg/kg/injection, schedule: Q04DX003 (ip), vehicle: saline",113 % of control
same,T/C,"dose: 100.0 mg/kg/injection, schedule: Q04DX003 (ip), vehicle: saline",99 % of control
O=C1CN(c2cccc(C(F)(F)F)c2)C(=O)CN1/N=C/c1ccco1,T/C,[4],100 % of control
same,T/C,[5],105 % of control
same,T/C,[6],99 % of control and 100 % of control
Nc1ccc(S(=O)(=O)Nc2nc(-c3ccccc3)cc(-c3ccccc3O)n2)cc1,T/C,"dose: 60.0 mg/kg/injection, schedule: Q01DX005 (ip), vehicle: saline with Tween-80",96 % of control
same,T/C,"dose: 120.0 mg/kg/injection, schedule: Q01DX005 (ip), vehicle: saline with Tween-80",96 % of control
